One compound from ChEMBL document CHEMBL3399954, “Design and synthesis of new tricyclic indoles as potent modulators of the S1P1 receptor” (Bioorg Med Chem Lett, 2015) can be followed below.

Data set [1] is described as follows: AUClast in Sprague-Dawley rat at 1 mg/kg, iv and 1 mg/kg, po. Format: ADME, organism-based. The conditions noted are these: plasma.
Data set [2] can be described thus: Half life in human liver microsomes. The class given is ADME. A general note: Microsomes from liver hold many membrane-bound enzymes, among them those of drug oxidation.
The nature of data set [3]: Half life in rat liver microsomes. Format: ADME.
The nature of data set [4]: Volume of distribution at steady state in Sprague-Dawley rat at 1 mg/kg, iv and 1 mg/kg, po. Format: ADME, organism-based. The conditions noted are these: in vivo, read-out: Vdss.
Data set [5] is described as follows: Half life in Sprague-Dawley rat at 1 mg/kg, iv. The conditions noted are these: in vivo. Also on record: dose 1 mg/kg, route intravenous. Format: ADME, organism-based.
Data set [6] can be described thus: Oral bioavailability in Sprague-Dawley rat at 1 mg/kg. Format: ADME, organism-based. The conditions noted are these: in vivo.
Data set [7] can be described thus: Half life in mouse liver microsomes. The class given is ADME.
Data set [8] in a line: Clearance in Sprague-Dawley rat at 1 mg/kg, iv and 1 mg/kg, po. Format: ADME, organism-based. The conditions noted are these: in vivo.

In general, AUC(0-t) refers to exposure summed from dosing to a finite time, without extrapolation to infinity. Read a low AUC(0-t) as low exposure. The term half-life denotes how long it takes for the measured level to halve. Lower therefore signals fast loss. In general, bioavailability refers to dose-corrected exposure relative to a reference, in per cent. Low readings indicate little systemic uptake, high ones much systemic uptake. Turning to `O=C(O)CC1NCCc2c1[nH]c1ccc(OCc3ccc(C4CCCC4)c(C(F)(F)F)c3)cc21` (single isomer, unassigned), the AUC(0-t) in data set [1] was determined as 1320 ng·h/mL. In addition, the half-life was greater than 1 h in data set [2], greater than 1 h in data set [3], 9.49 h in data set [5] and greater than 1 h in data set [7]. In addition, the Vd in data set [4] was 6.71 L/kg. Moreover, the bioavailability in data set [6] is less than 2%. This compound had a clearance in data set [8] of 10.7 mL/min/kg.
